Results as given in patent US6355615B1, “Desoxycyclodepsipeptides and their use for combatting endoparasites” (Bayer Aktiengesellschaft, priority 1997, dated 2002).

test system: Haemonchus contortus; assay: Haemonchus contortus/sheep: nematode egg count in feces before and after oral treatment; format: in vivo; settings: Haemonchus contortus, po, read-out: effective dose (Dosis effectiva)
Protocol: Haemonchus contortus/sheep
Sheep experimentally infected with Haemonchus contortus were treated after expiry of the prepatency time of the parasite.
The active compounds were administered orally in gelatin capsules as pure active ingredient.
The efficacy is determined by quantitatively counting the nematode eggs excreted with the feces before and after treatment.
Complete cessation of oviposition after treatment means that the nematodes have been expelled or are so damaged that they no longer produce eggs (Dosis effectiva).

Structure (SMILES) | minimal effective dose [mg/kg]
CC(C)C[C@H]1C(=O)O[C@H](Cc2ccccc2)C(=O)N(C)[C@@H](CC(C)C)C(=O)O[C@H](C)CN(C)[C@@H](CC(C)C)C(=O)O[C@H](Cc2ccccc2)C(=O)N(C)[C@@H](CC(C)C)C(=O)O[C@H](C)CN1C [Example 1-b, 8,20-dibenzyl-5,11,17,23-tetraisobutyl-2,4,10,14,16,22-hexamethyl-1,7,13,19-tetraoxa-4,10,16,22-tetraaza-cyclotetracosan-6,9,12,18,21,24-hexaone] | < 1
CC(C)C[C@H]1C(=O)O[C@H](Cc2ccccc2)CN(C)[C@@H](CC(C)C)C(=O)O[C@H](C)CN(C)[C@@H](CC(C)C)C(=O)O[C@H](Cc2ccccc2)CN(C)[C@@H](CC(C)C)C(=O)O[C@H](C)CN1C [Example 2, 8,20-dibenzyl-5,11,17,23-tetraisobutyl-2,4,10,14,16,22-hexamethyl-1,7,13,19-tetraoxa-4,10,16,22-tetraazacyclotetracosan-6,12,18,24-tetraone] | < 1
CC(C)C[C@H]1C(=O)O[C@H](Cc2ccc(N3CCOCC3)cc2)C(=O)N(C)[C@@H](CC(C)C)C(=O)O[C@H](C)CN(C)[C@@H](CC(C)C)C(=O)O[C@H](Cc2ccccc2N2CCOCC2)C(=O)N(C)[C@@H](CC(C)C)C(=O)O[C@H](C)CN1C [Example 6, 5,11,17,23-tetraisobutyl-2,4,10,14,16,22-hexamethyl-8-[-4-(N-morpholinyl)benzyl]-20-[2-(N-morpholinyl)benzyl]-1,7,13,19-tetraoxa-4,10,16,22-tetraaza-cyclotetracosan-6,9,12,18,21,24-hexaone] | < 1
CC(C)C[C@H]1C(=O)O[C@H](Cc2ccc(-n3cccc3)cc2)C(=O)N(C)[C@@H](CC(C)C)C(=O)O[C@H](C)CN(C)[C@@H](CC(C)C)C(=O)O[C@H](Cc2ccc(-n3cccc3)cc2)C(=O)N(C)[C@@H](CC(C)C)C(=O)O[C@H](C)CN1C [Example 14, 8,20-bis-[4-(1-pyrrolyl)-benzyl]-5,11,17,23-tetraisobutyl-2,4,10,14,16,22-hexamethyl-1,7,13,19-tetraoxa-4,10,16,22-tetraaza-cyclotetracosan-6,9,12,18,21,24-hexaone] | < 1
COCCN(CCOC)c1ccc(CC2OC(=O)C(CC(C)C)N(C)CC(C)OC(=O)C(CC(C)C)N(C)C(=O)C(Cc3ccc(N(CCOC)CCOC)cc3)OC(=O)C(CC(C)C)N(C)CC(C)OC(=O)C(CC(C)C)N(C)C2=O)cc1 (stereo not drawn) [Example 16-c, 8,20-bis-[4-bis-(β-methoxyethyl)aminobenzyl)-5,11,17,23-tetraisobutyl-2,4,10,14,16,22-hexamethyl-1,7,13,19-tetraoxa-4,10,16,22-tetraazacyclotetracosan-6,9,12,18,21,24-hexaone] | < 1
CC(C)C[C@H]1C(=O)O[C@H](Cc2ccc(NCc3ccco3)cc2)C(=O)N(C)[C@@H](CC(C)C)C(=O)O[C@H](C)CN(C)[C@@H](CC(C)C)C(=O)O[C@H](Cc2ccc(NCc3ccco3)cc2)C(=O)N(C)[C@@H](CC(C)C)C(=O)O[C@H](C)CN1C [Example 19, 8,20-bis-N-[4-(2-furylmethylanino)benzyl]-5,11,17,23-tetraisobutyl-2,4,10,14,16,22-hexamethyl-1,7,13,19-tetraoxa-4,10,16,22-tetraaza-cyclotetracosan-6,9,12,18,21,24-hexaone] | < 1
CC(=O)N1CCN(S(=O)(=O)c2ccc(CC3OC(=O)C(CC(C)C)N(C)CC(C)OC(=O)C(CC(C)C)N(C)C(=O)C(Cc4ccc(S(=O)(=O)O)cc4)OC(=O)C(CC(C)C)N(C)CC(C)OC(=O)C(CC(C)C)N(C)C3=O)cc2)CC1 (centres unmarked) [Example 21-b, 8-[4-(4-acetylpiperazin-1-yl)-sulfonyl-benzyl]-20-(4-sulfobenzyl)-5,11,17,23-tetraisobutyl-2,4,10,14,16,22-hexamethyl-1,7,13,19-tetraoxa-4,10,16,22-tetraaza-cyclotetracosan-6,9,12,18,21,24-hexaone] | 1

same assay, conditions: sheep experimentally infected with Haemonchus contortus; oral, gelatin capsules, pure active ingredient; complete cessation of oviposition after treatment

Structure (SMILES) | effective dose (Dosis effectiva) [mg/kg]
COCCNc1ccc(CC2OC(=O)C(CC(C)C)N(C)C(=O)C(C)OC(=O)C(CC(C)C)N(C)C(=O)C(Cc3ccc(N(CCOC)CCOC)cc3)OC(=O)C(CC(C)C)N(C)CC(C)OC(=O)C(CC(C)C)N(C)C2=O)cc1 (stereo not drawn) [Example 17-a, 8(or 20)-[4-bis-(β-methoxyethyl)aminobenzyl]-20(or 8)-(4-β-methoxyethylaminobenzyl)-5,11,17,23-tetraisobutyl-2,4,10,14,16,22-hexamethyl-1,7,13,19-tetraoxa-4,10,16,22-tetraaza-cyclotetracosan-6,9,12,15,18,21,24-heptaone] | <1

same assay, conditions: sheep experimentally infected with Haemonchus contortus; oral, gelatin capsules, pure active ingredient; complete cessation of oviposition after treatment; read-out: effective dose (Dosis effectiva)

Structure (SMILES) | minimal effective dose [mg/kg]
CC(C)C[C@H]1C(=O)O[C@H](Cc2ccc(N3CCOCC3)cc2)C(=O)N(C)[C@@H](CC(C)C)C(=O)O[C@H](C)CN(C)[C@@H](CC(C)C)C(=O)O[C@H](Cc2ccc(N3CCOCC3)cc2)C(=O)N(C)[C@@H](CC(C)C)C(=O)O[C@H](C)CN1C [Example 5, 5,11,17,23-tetraisobutyl-2,4,10,14,16,22-hexamethyl-8,20-bis-[4-(N-morpholinyl)benzyl]-1,7,13,19-tetraoxa-4,10,16,22-tetraaza-cyclotetracosan-6,9,12,18,21,24-hexaone] | < 1
CC(C)CC1C(=O)OC(C)CN(C)C(CC(C)C)C(=O)OC(Cc2ccc(N3CCOCC3)cc2)C(=O)N(C)C(CC(C)C)C(=O)OC(C)CN(C)C(CC(C)C)C(=O)OC(Cc2ccc(N3CCOCC3)cc2)CN1C (centres unmarked) [Example 7-c, 5,11,17,23-tetraisobutyl-2,4,10,14,16,22-hexamethyl-8,20-bis-[4-(N-morpholinyl)benzyl]-1,7,13,19-tetraoxa-4,10,16,22-tetraaza-cyclotetracosan-6,9,12,18,24-pentaone] | < 1
CC(C)CC1C(=O)OC(C)CN(C)C(CC(C)C)C(=O)OC(Cc2ccc(N3CCOCC3)cc2)CN(C)C(CC(C)C)C(=O)OC(C)CN(C)C(CC(C)C)C(=O)OC(Cc2ccc(N3CCOCC3)cc2)CN1C (centres unmarked) [Example 7-d, 5,11,17,23-tetraisobutyl-2,4,10,14,16,22-hexamethyl-8,20-bis-[4-(N-morpholinyl)benzyl]-1,7,13,19-tetraoxa-4,10,16,22-tetraaza-cyclotetracosan-6,12,18,24-tetraone] | < 1
COCCNc1ccc(CC2OC(=O)C(CC(C)C)N(C)CC(C)OC(=O)C(CC(C)C)N(C)C(=O)C(Cc3ccc(NCCOC)cc3)OC(=O)C(CC(C)C)N(C)CC(C)OC(=O)C(CC(C)C)N(C)C2=O)cc1 (stereo not drawn) [Example 16-a, 8,20-bis-(4-β-methoxyethylaminobenzyl)-5,11,17,23-tetraisobutyl-2,4,10,14,16,22-hexamethyl-1,7,13,19-tetraoxa-4,10,16,22-tetraaza-cyclotetracosan-6,9,12,18,21,24-hexaone] | < 1

test system: not given; assay: not given; settings: not given

Structure (SMILES) | melting point [°C]
CC(C)C[C@H]1C(=O)O[C@H](Cc2ccc(OCc3ccco3)cc2)C(=O)N(C)[C@@H](CC(C)C)C(=O)O[C@H](C)CN(C)[C@@H](CC(C)C)C(=O)O[C@H](Cc2ccc(OCc3ccco3)cc2)C(=O)N(C)[C@@H](CC(C)C)C(=O)O[C@H](C)CN1C (stereo in doubt) | 116 to 119
CC(C)C[C@H]1C(=O)O[C@H](Cc2ccccc2)C(=O)N(C)[C@@H](CC(C)C)C(=O)O[C@H](C)CN(C)[C@@H](CC(C)C)C(=O)O[C@H](Cc2ccccc2)C(=O)N(C)[C@@H](CC(C)C)C(=O)O[C@H](C)CN1C [Example 1-b, 8,20-dibenzyl-5,11,17,23-tetraisobutyl-2,4,10,14,16,22-hexamethyl-1,7,13,19-tetraoxa-4,10,16,22-tetraaza-cyclotetracosan-6,9,12,18,21,24-hexaone] | 149 to 150
